According to patent US9707244B2, “Compositions and methods for treating conditions that affect epidermis” (Gencia Corporation, priority 2013, dated 2017):
Entries after “also recorded” stand apart in the source; their conditions may differ.

Assays:
[1] = system: AG11073 untransformed human skin fibroblasts from a person; assay: Cellular senescence assay (SA-β-Gal fluorometric), aged fibroblasts; assay type: cell-based; conditions: 5 nM to 200 nM, p<0.01 for 5-100 nM, p<0.05 for 200 nM
Source text: Senescent cells show common biochemical markers such as expression of an acidic senescence-associated β-galactosidase (SA-β-Gal) activity. While senescence has been characterized primarily in cultured cells, there is also evidence that it occurs in vivo. Cells expressing markers of senescence such as SA-β-Gal have been identified in normal tissues. To determine whether modified Mitocreatine analogues may influence the scenesence in aged fibroblasts, a 96-well Cellular Senescence Assay (SA-β-Gal Fluorometric Format) Cat # CBA-231 Cell Biolabs, Inc. was employed and buffers referenced were supplied by the manufacturer and in some cases freshly prepared prior to usage according to the manufacturer's instructions.
The cells utilized were Human Skin Fibroblast acquired from Coriell Cell Repository. The cell line AG11073 is untransformed human skin fibroblasts from a person. The primary culture was initiated from explants of a 2 mm-punch biopsy. The cell line AG16409 was untransformed human skin fibroblasts from a person.
Cells were grown in a 96 well plate. […]
50 μL, of the reaction mixture was removed to a 96-well plate suitable for fluorescence measurement. The reaction was stopped by adding 200 μL of Stop solution and fluorescence was measured with a fluorescence plate reader (PHERA Star FS from BMG Labtech) at 360 nm (Excitation)/465 nm (Emission).

[2] = system: BJ human fibroblast cells; assay: Survival of fibroblasts treated with chemotherapeutic agents (DAPI fluorescence); assay type: cell-based; conditions: 48 hours, added simultaneously
Experimental: (§1) Fibroblasts were incubated with increasing amounts of Mitocreatine and certain anti-neoplastic agents, such as Cetuximab, Gemcitabine and Temozolomide. After incubation, cells were washed and the number of adherent (i.e. surviving) cells was assessed by DAPI fluorescence, which was measured utilizing a plate reader (PHERA Star FS from BMG Labtech). For these experiments two kinds of cells were used. Either the Human hepatocellular liver carcinoma cell line HepG2, or the BJ human fibroblast cells, which are established from normal human foreskin. […] Mitocreatine and the antineoplastic agent were added simultaneously.

[3] = system: fibroblasts; assay: Oxygen consumption rate (XF24 extracellular flux analyzer) in fibroblasts; assay type: cell-based; conditions: 5 nM to 500 nM; within thirty minutes of treatment; compared to 10 μM unmodified creatine
Experimental: In this assay, an XF24 extracellular flux analyzer (Seahorse Bioscience, North Billerica, Mass.) was used to measure mitochondrial oxygen consumption in intact cells. The XF24 analyzer creates a transient 7 μL chamber in specialized microplates that allows determination of oxygen and proton concentrations in real time through the measurement of oxygen sensitive dyes by the XF24 instrument. 24 hours prior to OCR measurement, fibroblasts were seeded into 20 wells of the 24 well tissue culture plate while 1 ml of XF Calibrant solution (Seahorse Bioscience, North Billerica, Mass.) was added to each well of a 24 well dual-analyte sensor cartridge (Seahorse Bioscience, North Billerica, Mass.). The sensor cartridge repositioned on the 24 well calibration plate, and the plate was incubated overnight at 37° C. without additional CO2.
On the day of the experiment, the injection ports on the sensor cartridge were loaded with compound A-1 or creatine as indicated at 10× concentrations and placed into the XF24 Flux Analyzer for automated calibration. […]
The results of the assay for Mitocreatine at 5 nM, 10 nM, 50 nM, and 500 nM concentrations are shown in FIG. 2 as a percent change from the untreated control. For comparison, the results obtained Mitocreatine were compared with the percent increase in oxygen consumption rate measured upon addition of 10 μM creatine.

[4] = system: Human hepatocellular liver carcinoma cell line HepG2; assay: Survival of HepG2 cells treated with chemotherapeutic agents (DAPI fluorescence); assay type: cell-based; conditions: Cetuximab, Gemcitabine or Temozolomide; 48 hours
Experimental: as §1

[5] = system: AG11073 senescent fibroblasts; assay: Intracellular collagen type I immunolabeling and image analysis; assay type: cell-based, human
Experimental: The cell line AG11073 senescent fibroblasts, at passage 20, were plated onto a multi-chambered glass slide. Dulbecco's Modified Eagle Medium (DMEM) supplemented with the appropriate serum and antibiotics and either containing vehicle or 25 nM of Mitocreatine was added to each chamber. Cells were treated once daily with fresh media containing either vehicle or 25 nM mitocreatine for seven days. At the completion of the treatment period, the cells were washed with warm PBS and fixed with ice cold acetone. The chambers were removed and the slide immunoprobed with an anti-collagen type I antibody (ab292, Abcam). An Alexa-488 secondary antibody was used for detection and DAPI used to stain nuclei.
The cells utilized were human skin fibroblast acquired from Coriell Cell Repository. The cell line AG11073 is untransformed human skin fibroblasts from a person. The primary culture was initiated from explants of a 2 mm-punch biopsy. The cell line AG16409 is untransformed human skin fibroblasts from a person. Aged senescent fibroblasts (Coriell AG11073) were cultured for 7 days with either vehicle or 25 nM mitocreatine. Cells were probed with anti-collagen type I antibody (green) and DAPI (blue) for nuclei to assess changes in collagen type I expression.
Cell area and mean pixel intensity of the green fluorescence was acquired using Image J software. Image analysis supports an increase in cell area as well as an increase in intracellular collagen type I.
Image data from the immunolabeling of collage type I study was also used to quantify the amount of collagen immunolabeling in the AG11073 senescent fibroblast treated with 25 nM Mitocreatine in vehicle for seven days.

CN(CC(=O)NCCC[P+](c1ccccc1)(c1ccccc1)c1ccccc1)C(=N)N.Cl.[Cl-] [Mitocreatine, N^2-[ammonio(imino)methyl]-N^2-methyl-N-[3-(triphenylphosphonio)propyl] glycinamide dichloride]
β-galactosidase expression/activity (senescence marker) [1]: statistically significant decrease; also recorded: retards senescence | survival of fibroblasts ([2]; Gemcitabine (80 μM)): improved the survival | survival of fibroblasts ([2]; Temozolomide (1 mM)): improved the survival | survival of fibroblasts ([2]; high concentrations of Cetuximab): improved the survival | oxygen consumption rate [3]: significant increase in oxygen consumption rate | survival of HepG2 cells [4]: not improve the survival | induction in collagen type I levels ([5]; 25 nM for seven days, fluorescent intensity per area unit normalized to untreated cells): 7 fold | intracellular collagen type I ([5]; 25 nM once daily for seven days): significant increase in intracellular collagen; also recorded: significant increase in collagen type I expression | cell numbers / cell proliferation ([5]; 25 nM once daily for seven days, senescent cells): significant increase in cell numbers; also recorded: induced cell proliferation
